From patent US11980616B2, “Treating liver disease by selectively eliminating senescent cells” (Buck Institute for Research on Aging, priority 2014, dated 2024)

Legend:
[1] = test system: non-senescent pre-adipocytes (Non Sen Pread); experiment: Cell count toxicity assay, non-senescent pre-adipocytes; format: cell-based; conditions: 0, 2.5, 10 μM, 11 days
Description: Non-senescent aortic endothelial (Endo Aort) cells and pre-adipocytes (Pread) were also treated with varying concentrations (0, 2.5 μM, and 10 μM) of Nutlin-3a for a period of 11 days to assess Nutlin-3a toxicity, as described above. Cell counts were taken at the start at Day 0 (NS start) and at the end of Nutlin-3a treatment (NS 0). The difference between counts of cells not treated with Nutlin-3a on day 11 (NS 0) and cell counts from NS start reflects the cell growth over the indicated time period. […] Decrease in apparent survival between NS 0 and NS 2.5 and between NS 0 and NS 10 reflects a decrease in cell growth.

[2] = test system: senescence markers and SASP factors in senescent IMR90 cells; experiment: qPCR of senescence markers and SASP factors in irradiated senescent IMR90 cells; format: cell-based, human
Description: Primary human fibroblast (IMR90) cells were induced to senesce by applying 10 Gy of irradiation. Seven days after irradiation (Day 0), cells were treated with 10 μM Nutlin-3a or vehicle (DMSO) for nine days (Day 9). The drug or vehicle was refreshed every three days. Drug/vehicle was removed at Day 9 and the cells were cultured for an additional three days (Day 12) in media without drug or DMSO. Cells were then collected, mRNA extracted, and cDNA prepared. Quantitative PCR (qPCR) was then performed to detect expression of various genes. Cells were also collected at Day 12 after drug/vehicle had been removed for three days. The data are presented as an average of three samples. Data were normalized to actin and depicted as a ratio to non-senescent cells.

[3] = test system: osteoarthritic joint of mice after ACL surgery; experiment: Osteoarthritis mouse model (ACL surgery); format: in vivo
Description: A table and schematic of two osteoarthritis mouse model study designs are presented in FIGS. 35 and 36, respectively. The two treatment studies were designed to determine the effect of removing senescent cells in an animal model of osteoarthritis.
Parallel studies were performed. One study investigated the effect of eliminating senescent cells with ganciclovir (GCV) in 3MR mice. Mice underwent surgery to cut the anterior cruciate ligament of one rear limb to induce osteoarthritis in the joint of that limb. During week 2 post-surgery, 3MR mice received 2.5 μg GCV to the operated knee by intra-articular injection, qd for 5 days, with a 2nd treatment (2.5 μg GCV qd for 5 days) during week 4 post-surgery. At the end of 4 weeks post-surgery, operated joints of the mice were monitored for presence of senescent cells, assessed for function, monitored for markers of inflammation, and underwent histological assessment.
In a parallel study, C57BL/6J mice underwent surgery to cut the anterior cruciate ligament of one rear limb to induce osteoarthritis in the joint of that limb. During week 3 and week 4 post-surgery, the mice were treated with 5.8 μg of Nutlin-3A (n=7) per operated knee by intra-articular injection, qod for 2 weeks. At the end of 4 weeks post-surgery, joints of the mice were monitored for presence of senescent cells, assessed for function, monitored for markers of inflammation, and underwent histological assessment.
Two control groups of mice were included in the studies performed: one group comprising C57BL/6J or 3MR mice that had undergone a sham surgery (n=3) (i.e., surgical procedures followed except for cutting the ACL) and intra-articular injections of vehicle parallel to the GCV-treated group; and one group comprising C57BL/6J or 3MR mice that had undergone an ACL surgery and received intra-articular injections of vehicle (n=5) parallel to the GCV-treated group.
RNA from the operated joints of mice from the Nutlin-3A treated mice was analyzed for expression of SASP factors (mmp3, IL-6) and senescence markers (p16). qRT-PCR was performed to detect mRNA levels. […] RNA from the operated joints of mice was also analyzed for expression of type 2 collagen and compared with expression of actin as a control.
Function of the limbs was assessed 4 weeks post-surgery by a weight bearing test to determine which leg the mice favored (FIG. 39). The mice were allowed to acclimate to the chamber on at least 3 occasions prior to taking measurements. Mice were maneuvered inside the chamber to stand with 1 hind paw on each scale. The weight that was placed on each hind limb was measured over a 3-second period. At least 3 separate measurements were made for each animal at each time point. The results were expressed as the percentage of the weight placed on the operated limb versus the contralateral unoperated limb.
The function of the limbs was also assessed at 4 weeks post-surgery by hotplate analysis to show sensitivity and reaction to pain stimulus. In brief, a mouse was placed on a hotplate at 55° C. When placed on the hot surface of the plate, mice will lift their paws and lick them (paw-lick response) due to attainment of pain threshold. The latency period for the hind limb response (paw-lick response) is recorded as response time.
Histopathology of osteoarthritis induced by ACL surgery illustrated that the proteoglycan layer was destroyed. […] Clearing of senescent cells from the 3MR mice treated with GCV, which kills senescent cells, had the same impact on pathophysiology of osteoarthritis as Nutlin-3A.

[4] = test system: p16-3MR mice treated with paclitaxel; experiment: Voluntary exercise (wheel counts) after paclitaxel in p16-3MR mice; format: in vivo, mouse; conditions: ABT-263 100 mg/kg i.p. daily 7 days; ganciclovir 25 mg/kg i.p. daily 3 days
Description: The capability of a senolytic agent, such as ABT-263, to reduce chemotherapy related side effects, such as fatigue, was examined in p16-3MR transgenic mice. In addition to doxorubicin, paclitaxel also induces cellular senescence when administered to animals. See Example 2 for a description of the p16-3MR transgenic mouse model.
In this experiment, paclitaxel was administered to groups of p16-3mr mice (n=4) three times, every two days. Two days after the third dose of paclitaxel, ganciclovir was administered daily for three days (days 1, 2, and 3) intraperitoneally at 25 mg/kg. ABT-263 (100 mg/kg) was administered intraperitoneally daily for seven days after paclitaxel administration. Two days after the last dose of ABT-263, all groups of animals were housed in metabolic cages (promethion, sable systems international, Las Vegas, NV) to monitor voluntary exercise as determined by wheel counts. Data were collected and analyzed two days later. Clearance of senescent cells by ABT-263 and ganciclovir restored approximately 70% of wheel count reduction caused by chemotherapy treatment.

[5] = test system: p16-3MR mice fed a high fat diet; experiment: High fat feeding-induced senescence in p16-3MR mice, SA-β-Gal staining of adipose tissue; format: in vivo, mouse; conditions: 25 mg/kg daily for five days; p=<0.004
Description: Groups of p16-3MR mice (n=6) were fed a high fat diet (60% fat) for four months mice or a regular chow diet. The presence of senescence cells was determined by measuring luminescence p16 positive cells). […] Animals were then treated with ganciclovir or vehicle to determine if removal of senescent cells reduced the presence of senescent cells in adipose tissue. Groups of animals were treated with ganciclovir or vehicle. Ganciclovir (25 mg/kg) was administered daily for five consecutive days. The presence of senescent cells in perirenal, epididymal, or subcutaneous inguinal adipose tissue was detected by SA-β-Gal staining. Data were analyzed by ANOVA.

[6] = 10 μM, drug present and after removal
[7] = Day 12, three days after drug removal

Structure (SMILES): COc1ccc(C2=N[C@@H](c3ccc(Cl)cc3)[C@@H](c3ccc(Cl)cc3)N2C(=O)N2CCNC(=O)C2)c(OC(C)C)c1 [Nutlin-3a]
- Proliferation (percent growth) [1]: reduces proliferation
- Toxicity (cell number vs starting level) [1]: non-toxic
- p21 level relative to non-senescent cells ([2]; 10 μM, Day 9, qPCR normalized to actin): approximately 90 fold
- IL-1α level ([2]; 10 μM, Day 9 and Day 12): decreased only after Nutlin-3a had been removed
- CXCL-1 level [2, 6]: reduced
- IL-6 level [2, 6]: reduced
- IL-8 level [2, 6]: reduced
- p16 level [2, 7]: decrease
- p21 level vs DMSO treated cells [2, 7]: comparable
- p16 level ([2]; in the presence of drug (Day 9)): did not change
- Type 2 collagen expression in operated joints ([3]; 5.8 μg per knee intra-articular, vs untreated mice): drives collagen production
- Weight bearing test (weight on operated vs unoperated limb) ([3]; 4 weeks post-surgery): abrogates this effect
- Hotplate paw-lick response time ([3]; 55° C., 4 weeks post-surgery): decreases the response time in a significant manner
- Histopathology: destruction of the proteoglycan layer ([3]; C57BL/6J, 5.8 μg per knee intra-articular): completely abrogated this effect
- Senescent cells in the joint (p16 and SASP factor mRNA, qRT-PCR) ([3]; C57BL/6J, 5.8 μg per knee intra-articular qod 2 weeks, 4 weeks post-surgery): clears senescent cells from the joint

Structure (SMILES): Nc1nc(O)c2ncn(COC(CO)CO)c2n1 [ganciclovir]
- Histopathology: impact on pathophysiology of osteoarthritis ([3]; 3MR mice, 2.5 μg intra-articular qd 5 days, weeks 2 and 4): same impact
- Restoration of wheel count reduction caused by chemotherapy [4]: approximately 70%
- Presence of senescent cells in epididymal fat (SA-β-Gal staining) [5]: significant reduction
